What was measured:
Assay type in all cases: binding, rabbit
[1] = tested on: As389; experiment: Competitive indirect ELISA for detection of HQNO (As389, coating antigen I-5); conditions: for C.R. (Cross Reactivity): As389 (HQNO) assay, relative to HQNO
Method: (§1) The competitive assay was carried out in a 96 well Maxisorp flat-bottom plates, coated using 100 μL of a BSA conjugate solution in coating buffer pH=9.6. Then, plates were covered with adhesive plate sealer and incubated overnight at 4° C. The day after, plates were washed with PBST (4×300 μL) using the platewasher Biotek ELx405 HT. Sequentially, 50 μL of the corresponding sample solution, containing the analyte HHQ, PQS or HQNO (2 μM to 0.13 nM) or MH medium were added, followed by 50 μL addition of a fixed As dilution and left without agitation 30 min at RT. After another washing step, a 1/6000 dilution of goat AntiRabbit IgG-HRP in PBST was added and incubated 30 min at RT. After a final washing, 100 μL of a substrate solution was added and left 30 min at RT in the dark. Once the time was consumed, the enzymatic reaction was stopped by adding 50 μl of H2SO4 4M solution and the absorbances read at 450 nm. Absorbance data were plotted and analyzed using GraphPad software. The standard calibration curve was fitted to a four-parameter equation according to the following formula: […], where A is the maximum absorbance, B is the minimum absorbance, C is the concentration producing 50% of the maximal absorbance, and D is the slope at the inflection point of the sigmoid curve. Unless otherwise indicated, the data presented correspond to the average of at least two well replicates.
(§2) Regarding specificity studies, it was followed the experimental procedure for indirect competitive ELISA described above. It was assessed the avidity of As versus other quinolone effector molecules of the pqs system from P. aeruginosa. Each assay was run using HHQ, PQS and HQNO as analyte. Cross reactivity was calculated through the equation: […].

[2] = tested on: As382; experiment: Competitive indirect ELISA for detection of HHQ (As382, coating antigen I-7); conditions: for C.R. (Cross Reactivity): As382 (HHQ) assay, relative to HHQ
Method: as §1, §2

[3] = tested on: As385; experiment: Competitive indirect ELISA for detection of PQS (As385, coating antigen I-5); conditions: for C.R. (Cross Reactivity): As385 (PQS) assay, relative to PQS
Method: as §1, §2

[4] = cross reactivity study, As389 (HQNO) assay conditions
[5] = cross reactivity study, As382 (HHQ) assay conditions
[6] = cross reactivity study, As385 (PQS) assay conditions

SMILES	C.R. (Cross Reactivity) [1]	IC50 [1, 4]	C.R. (Cross Reactivity) [2]	IC50 ([2]; MH diluted 1/5, As382 dil. 1/64000, I-7 0.156 μg/mL)	IC50 ([2]; PBST, As382 dil. 1/32000, I-7 0.313 μg/mL)	IC50 [2, 5]	C.R. (Cross Reactivity) [3]	IC50 [3, 6]	IC50 ([1]; MH diluted 1/5, As389 dil. 1/16000, I-5 0.250 μg/mL)	IC50 ([1]; PBS at pH = 6.5, As389 dil. 1, I-5 0.250 μg/mL)	IC50 ([3]; MH diluted 1/10, As385 dil. 1/64000, I-5 0.039 μg/mL)	IC50 ([3]; PBS + 0.01% Tween + 0.1 mM EDTA, As385 dil. 1/48000, I-5 0.039 μg/mL)
CCCCCCCc1cc(=O)c2ccccc2[nH]1 [HHQ, 2-heptyl-4-quinolone]	36.24%	26.4 nM	100.00%	2.85 ± 0.296 nM	4.59 ± 0.287 nM	2.67 nM	13.31%	27.2 nM	–	–	–	–
CCCCCCCc1cc(=O)c2ccccc2n1O [HQNO, 2-heptyl-4-quinolone N-oxide]	100.00%	9.55 nM	3.11%	–	–	86 nM	1.53%	236 nM	2.71 ± 0.035 nM	4.2 ± 0.858 nM	–	–
CCCCCCCc1[nH]c2ccccc2c(=O)c1O [PQS, 2-heptyl-3-hydroxy-4-quinolone]	5.41%	177 nM	7.16%	–	–	37.3 nM	100.00%	3.62 nM	–	–	6.05 ± 0.155 nM	3.87 ± 0.529 nM
